Source: the pKa sets of Baltruschat and Czodrowski (2020)

Compound	pKa (acidic group)	pKa (basic group)
CC(C)(C)C1CCn2nnnc2C(C(=O)O)C1 (centres undefined)	4.4	
CN(C)CCC/N=C(\c1ccccc1)c1ccc2ccccc2c1		9.2
O=C([O-])c1nc[nH]c1C(=O)[O-]		8.49
C1CCC(NC2CCCCO2)OC1 (centres undefined)		8.1
C#CCNN		5.46
C[n+]1c2ccccc2cc2ccc(N)cc21	11.8	
OC[C@@H]1CCN2CC[C@H](O)[C@H]12		10.2
Cc1c(Cn2cc[nH+]c2)oc2ccc(C(=O)O)cc12	3.91	
O=S(=O)(Nc1ccc(Cl)cc1)c1ccccc1	7.91	
Cn1c(C(=O)O)cc(=O)n(C)c1=O	0.8	
Cc1cc(C)n(C)c(=O)n1		4
O=C(O)[C@@H]1O[C@H](Oc2ccc3oc4cccc(O)c4c(=O)c3c2)[C@@H](O)[C@H](O)[C@H]1O	3.94	
NC(=O)CCCCc1ccncc1		5.92
[O-]c1ccc(O)cc1Br	10.7	
O=C(CCN1CCOCC1)c1ccccc1		6.5
CCN(CC)CCCCCCCC(C)Nc1c2ccc(Cl)cc2nc2ccc(OC)cc12 (centres undefined)		10.4
CCN1CCC[C@@H]1CNC(=O)c1c(OC)ccc([N+](=O)[O-])c1[O-]		9.12
O=[N+]([O-])c1cccc2c[n+](CCCO)ccc12	10.4	
Oc1ccccc1-c1ccccn1	10.6	4.2
O=C(O)CCCP	4.53	
N#CO	3.67	

Compound	pKa (acidic group)	pKa (basic group)
Nc1cccc(N)c1O	10.5	5.5
O=[N+]([O-])c1ccc2cn[nH]c2c1		0.66
CC(CCN(C)C)NN (centres undefined)		9.23
Cc1cc(-c2ncc[nH]2)nn1C		6.2
COCc1ccccc1CN(C)C		9.19
NC(=O)Nc1[nH]cnc1C(=O)[O-]	12.2	4.9
C=CCN1CCCCC1		9.66
CN(C)C[C@H]1[C@@H]2CC[C@@](C)([C@H]1N)C2(C)C		9.84
CCCCCCCCCCCCN(CCO)CC(C)O (centres undefined)		6.5
N#CC(CC(=O)O)c1ccccc1 (centres undefined)	3.79	
CCc1cccc(/N=N/c2ccc(N(C)C)cc2)c1		2.16
Cc1cccc(C(O)C(C(=O)O)c2ccc(-c3ccccc3)cc2)c1 (centres undefined)	4.17	
CN(C)c1ccc(C(=O)O)cc1	4.96	2.57
Nc1nc(N)c2cnn(-c3ccccc3)c2n1		4.49
O=C(O)c1cnccn1	2.7	-0.7
Nc1cccnn1		5.19
CN(C)/C=N/c1ccccc1		9
C/C(=C\C=C\C(C)C(=O)O)[C@H]1C[NH2+][C@H](C(=O)[O-])[C@H]1CC(=O)O (some centres undefined)	3.72	
Cc1cccc(OCC(=O)O)c1	3.18	
CC1=Nc2ccccc2CO1		4.64
CCOC(=S)NC(=O)c1ccccc1	7.46	

Compound	pKa (acidic group)	pKa (basic group)
CCC/C=C1\CCCN1C		11.9
Cc1nnc2c(c1C)CCCC2		5.41
Cc1cc2cccc(C)c2nc1C		4.41
[NH3+]CCNCCO		6.66
CCOC(=O)CN		7.74
Cc1nc2cc(N)ccc2[nH]1		6.95
Cn1nc(/N=N/O)nc1Cl	5.17	
NC(=O)/C(=N/O)c1ccccc1	9.55	
O=C(O)c1ccccc1F	3.6	
CC(=S)Nc1ccc([N+](=O)[O-])cc1	9.89	
Cc1cc2nc3ccc(N(C)C)cc3nc2cc1N	14.7	7.18
CO[n+]1ccccc1O	-1.3	
c1ccc(CNC(CC2CCCCC2)CC2CCCCC2)cc1		7.7
C(=N\c1ccccc1)/Nc1ccccc1		6.3
CC(C)/C=C/C(=O)O	4.7	
Clc1ccc(C/C(=C\CN2CCCC2)c2ccccc2)cc1		8.77
Nc1cnc2cc3ccccc3cc2c1		4.78
Cc1ccc(-c2cnc(-c3ccc(Cl)cc3)o2)cc1		0.58
CNc1nc(O)[n+]([C@@H]2C[C@@H](O)[C@H](CO)O2)cc1C	4.04	
NCc1cc(N)cc(Cl)c1		9.54
NC1CCc2ccccc2C1 (centres undefined)		9.97

Compound	pKa (acidic group)	pKa (basic group)
COc1c(C)cc2c(c1C(=O)O)COC2	3.13	
Cn1cnc2ncn(C)c2c1=O		2.16
O=C([O-])c1ccc2ccccc2n1		4.97
CCCP(=O)(CCC)CCC	12.2	4.9
O=[N+]([O-])c1cc[n+](O)cc1	-1.7	
CN(C)c1ccc(C(O)(c2ccccc2)c2ccc(N(C)C)cc2)cc1		6.93
C#C[C@]1(O)C[C@H](C)N(C)[C@@H]2CCCC[C@H]21		9.22
c1ccc(-n2cnnn2)cc1		-3.41
O=[Se](O)c1cccc(-c2ccccc2)c1	4.87	
CN(C)CCC(=O)C(C)(C)C		9.49
Cc1n[nH]c2c(NCc3ccco3)ncnc12		4.84
O=C(/C(=N/O)c1ccccc1)c1ccccc1	8.8	
NC(=O)C#CC#C/C=C/C(=O)O	3.52	
CC1C(=O)c2ccccc2C1=O	6.17	
CC(=O)[n+]1ccc(N(C)C)cc1	9.55	
Oc1ccc2nc3ccccc3cc2c1	8.81	5.52
CNCC#N		5.26
COc1ccc(CC(=O)O)cc1	4.36	
